Tests used:
[1] = test system: differentiated SH-SY5Y (cells) exposed to Aftin-5; assay: Curative test, Alzheimer model induced by Aftin-5 (10 μM): neurite length and cell counts; assay type: cell-based, human; conditions: 10 μM Aftin-5 for 48 hours
Description: All tests were performed in three technical replicates using 96-well microplates. After inoculation, SH-SY5Y cells were differentiated by exposure to retinoic acid (10 μM) for 4 days.
After each test, the cells were fixed using a mixture of methanol and acetone at room temperature for 5 minutes, before staining the nuclei with Hoechst and immunostaining the B3 tubulin (secondary antibody conjugated to an Alexa 488 fluorochrome).
Models of neurodegenerative diseases can be established in the laboratory using differentiated neuronal cell lines. Using chemical inducers (Aftin-5, in this case), a model of Alzheimer's disease can be obtained with the human neuroblastoma cell line SH-SY5Y. The neuroprotective and curative properties of the combination of extracts are evaluated following neurotoxic aggression by counting neurons and measuring the length of neurites.
The cells were exposed for 2 days with 10 μM of Aftin-5 alone. […] After fixation and labeling, neurite outgrowth and cell counts were evaluated using MetaXpress (Molecular Devices).
The images were obtained using an ImageXpress® Micro XLS (Molecular Devices) automated microscope with a 20× objective. […] Four fields per well were recorded and analyzed individually.
The images were analyzed using MetaXpress (Molecular Devices) software.

[2] = test system: DNA repair systems in HepG2 cells; assay: DNA repair (Excision/Resynthesis, BER and NER) on lesion plasmid chip with extracts of treated HepG2 cells; assay type: cell-based; conditions: EMS alone

SMILES | neurite length compared to the control (inducer alone) [1] | effect of genotoxic on repair of photoproducts (CPD-64), Nucleotide Excision Repair (NER) [2] | effect of genotoxic on Basic Excision Repair (BER) ([2]; at least at the highest concentration tested (1 mM))
CC[C@H](CO)Nc1nc(N(C)c2ccccc2)c2ncn(C(C)C)c2n1 [Aftin-5] | significant reduction in neurite length |  | 
CCOS(C)(=O)=O [EMS, ethyl methane sulfonate] |  | not affected | exclusively stimulates Basic Excision Repair (BER)

Source: patent US11771730B2, “Combination of Rhodiola and Astragalus for the treatment of neurodegenerative diseases” (HUMAN BY NATURE, priority 2018, dated 2023)
